In patent US8501750B2, “Heterocyclic compound and use thereof” (Takeda Pharmaceutical Company Limited, priority 2007, dated 2013):
Where a name gives a salt, the structure may show the parent alone. Read-outs that look alike come from different tables or passages of the source.

Legend:
[1] = biological target: AT1 receptor (Homo sapiens (Human), UniProt P30556); experiment: AT1 receptor binding inhibitory action
[2] = biological target: PPARγ (Homo sapiens (Human), UniProt P37231); experiment: PPARγ activating action (luciferase reporter in PPARγ:RXRα:4ERPP/CHO-K1 cells); type: cell-based; details: CHO-K1, 24 h, read-out: PPARγ activating action (activation % (1 μM))
Experimental: Then the medium was removed from the 96-well half area white plate, 45 μl of Ham's F12 medium containing 0.1% fatty acid-free bovine serum albumin (BSA) and 5 μl of test compound were added, and the cells were cultured in a CO2 gas incubator at 37° C. for 1 day. The medium was removed and 20 μl of PicaGene 7.5 [manufactured by Dainippon Ink and Chemicals Corporation, Japan] diluted 2-fold with HBSS (HANKS' BALANCED SALT SOLUTION) [manufactured by BIO WHITTAKER, USA] was added. After stirring, the luciferase activity was determined using 1420 ARVO Multilabel Counter [manufactured by PerkinElmer, USA]. […] A CHO-K1 cell cultured in a 150 cm^2 cell culture flask [manufactured by Corning Costar Corporation, USA] containing Ham's F12 medium [manufactured by INVITROGEN, USA] supplemented with 10% fetal bovine serum [manufactured by INVITROGEN, USA] was scraped by treating with 0.5 g/L trypsin-0.2 g/L EDTA (ethylenediaminetetraacetic acid) [manufactured by Life Technologies, Inc., USA], and then the cell was washed with PBS (Phosphate-buffered saline) [manufactured by INVITROGEN, USA], centrifuged (1000 rpm, 5 minutes) and suspended in PBS. Subsequently, DNA was introduced into the cell under the conditions shown below using GENE PULSER [manufactured by Bio-Rad Laboratories, USA]. […] Subsequently, the cell was transferred into a F12 medium containing 10% fetal bovine serum and cultured for 24 hours, and then the cell was scraped again and centrifuged, and then suspended in Ham's F12 medium containing 10% fetal bovine serum supplemented with 500 μg/ml of Geneticin [manufactured by INVITROGEN, USA] and 250 μg/ml of Zeocin [manufactured by INVITROGEN, USA]. The obtained suspension was diluted to the density of 10^4 cells/ml and inoculated in a 96-well plate [manufactured by Corning Costar Corporation, USA], which was cultured in a CO2 gas incubator at 37° C., whereby obtaining a Geneticin- and Zeocin-resistant transformant.

[3] = test compound 1 μM, luciferase activity relative to control compound X (1 μM) = 100%, non-administration group = 0%

Chain of AT1 receptor (P30556 whole entry): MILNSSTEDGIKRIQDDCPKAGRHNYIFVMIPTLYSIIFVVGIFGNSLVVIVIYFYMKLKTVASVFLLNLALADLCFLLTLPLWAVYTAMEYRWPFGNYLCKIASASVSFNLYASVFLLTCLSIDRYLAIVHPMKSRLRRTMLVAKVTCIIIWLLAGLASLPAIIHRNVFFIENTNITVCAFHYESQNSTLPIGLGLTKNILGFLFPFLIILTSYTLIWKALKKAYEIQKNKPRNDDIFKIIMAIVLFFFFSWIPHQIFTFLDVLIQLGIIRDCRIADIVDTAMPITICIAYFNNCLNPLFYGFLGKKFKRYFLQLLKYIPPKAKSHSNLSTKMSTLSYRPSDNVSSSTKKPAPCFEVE
Chain of PPARγ (P37231 29-505): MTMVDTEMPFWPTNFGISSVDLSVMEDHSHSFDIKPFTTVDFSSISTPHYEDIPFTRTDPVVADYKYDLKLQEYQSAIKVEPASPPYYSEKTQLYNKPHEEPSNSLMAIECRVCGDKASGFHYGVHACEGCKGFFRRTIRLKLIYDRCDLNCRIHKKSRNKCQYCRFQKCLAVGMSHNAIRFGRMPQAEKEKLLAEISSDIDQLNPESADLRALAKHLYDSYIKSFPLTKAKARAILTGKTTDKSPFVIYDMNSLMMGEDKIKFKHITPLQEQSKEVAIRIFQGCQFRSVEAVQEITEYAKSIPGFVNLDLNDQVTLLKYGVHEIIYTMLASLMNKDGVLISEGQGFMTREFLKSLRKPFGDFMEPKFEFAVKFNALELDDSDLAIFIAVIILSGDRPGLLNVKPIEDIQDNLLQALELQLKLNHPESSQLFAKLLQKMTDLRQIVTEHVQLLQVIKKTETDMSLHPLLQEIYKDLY
Chain of PPARγ (P19793 whole entry partner): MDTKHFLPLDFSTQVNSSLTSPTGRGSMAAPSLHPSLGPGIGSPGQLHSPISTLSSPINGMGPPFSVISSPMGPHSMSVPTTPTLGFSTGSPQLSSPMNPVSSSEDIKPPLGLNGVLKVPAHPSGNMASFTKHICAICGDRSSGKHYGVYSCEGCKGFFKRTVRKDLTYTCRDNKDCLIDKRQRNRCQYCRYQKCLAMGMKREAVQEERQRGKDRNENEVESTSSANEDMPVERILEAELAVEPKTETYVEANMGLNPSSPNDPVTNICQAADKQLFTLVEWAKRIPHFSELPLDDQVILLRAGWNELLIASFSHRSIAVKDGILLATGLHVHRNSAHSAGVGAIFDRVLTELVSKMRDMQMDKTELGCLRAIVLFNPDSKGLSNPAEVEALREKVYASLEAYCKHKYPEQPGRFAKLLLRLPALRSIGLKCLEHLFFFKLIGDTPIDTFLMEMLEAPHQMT

Row | Structure (SMILES) | IC50 [1] | activation at 1 µM [2, 3] | activation at 1 µM [2]
1 | COc1ccccc1C(=O)Cn1c(=O)c2cc(C3CC3)sc2n(Cc2ccc(-c3ccccc3-c3noc(O)n3)cc2)c1=O [Ex. 99, 6-cyclopropyl-3-[2-(2-methoxyphenyl)-2-oxoethyl]-1-{[2′-(5-oxo-4,5-dihydro-1,2,4-oxadiazol-3-yl)biphenyl-4-yl]methyl}thieno[2,3-d]pyrimidine-2,4(1H,3H)-dione potassium salt] | 1.2 nM | – | 56%
2 | C=CCON=C(Cn1c(=O)c2cc(CC)sc2n(Cc2ccc(-c3ccccc3-c3noc(=O)[nH]3)cc2)c1=O)c1ccc(OC)cc1 [Ex. 214, 3-[2-[(allyloxy)imino]-2-(4-methoxyphenyl)ethyl]-6-ethyl-1-{[2′-(5-oxo-4,5-dihydro-1,2,4-oxadiazol-3-yl)biphenyl-4-yl]methyl}thieno[2,3-d]pyrimidine-2,4(1H,3H)-dione] | 1.8 nM | 41% | –
3 | CCc1cc2c(=O)n(CC3(C)COC3)c(=O)n(Cc3ccc(-c4ccccc4-c4noc(=O)[nH]4)cc3)c2s1 [Ex. 144, 6-ethyl-3-[(3-methyloxetan-3-yl)methyl]-1-{[2′-(5-oxo-4,5-dihydro-1,2,4-oxadiazol-3-yl)biphenyl-4-yl]methyl}thieno[2,3-d]pyrimidine-2,4(1H,3H)-dione] | 1.7 nM | 40% | –
4 | CCc1cc2c(=O)n(CC(=O)c3ccc(OC)cc3)c(=O)n(Cc3ccc(-c4ccccc4-c4noc(O)n4)cc3C)c2s1 [Ex. 116, 6-ethyl-3-[2-(4-methoxyphenyl)-2-oxoethyl]-1-{[3-methyl-2′-(5-oxo-4,5-dihydro-1,2,4-oxadiazol-3-yl)biphenyl-4-yl]methyl}thieno[2,3-d]pyrimidine-2,4(1H,3H)-dione potassium salt] | 1.8 nM | – | 38%
5 | COc1ccc(C(=O)Cn2c(=O)c3cc(C4CC4)sc3n(Cc3c(F)cc(-c4ccccc4-c4noc(O)n4)cc3F)c2=O)cc1 [Ex. 135, 6-cyclopropyl-1-{[3,5-difluoro-2′-(5-oxo-4,5-dihydro-1,2,4-oxadiazol-3-yl)biphenyl-4-yl]methyl}-3-[2-(4-methoxyphenyl)-2-oxoethyl]thieno[2,3-d]pyrimidine-2,4(1H,3H)-dione potassium salt] | 1.5 nM | – | 71%
6 | COc1cccc(C(=O)Cn2c(=O)c3cc(C4CC4)sc3n(Cc3ccc(-c4ccccc4-c4noc(O)n4)cc3)c2=O)c1 [Ex. 107, 6-cyclopropyl-3-[2-(3-methoxyphenyl)-2-oxoethyl]-1-{[2′-(5-oxo-4,5-dihydro-1,2,4-oxadiazol-3-yl)biphenyl-4-yl]methyl}thieno[2,3-d]pyrimidine-2,4(1H,3H)-dione potassium salt] | 1.1 nM | – | 43%

More lines, in order of falling IC50 [1], values ahead:

Row | IC50 [1] | activation at 1 µM [2, 3] | Structure (SMILES) | activation at 1 µM [2]
7 | 1.7 nM | 36% | CCc1cc2c(=O)n(CC3(O)CCOCC3)c(=O)n(Cc3ccc(-c4ccccc4-c4noc(=O)[nH]4)cc3)c2s1 [Ex. 145, 6-ethyl-3-[(4-hydroxytetrahydro-2H-pyran-4-yl)methyl]-1-{[2′-(5-oxo-4,5-dihydro-1,2,4-oxadiazol-3-yl)biphenyl-4-yl]methyl}thieno[2,3-d]pyrimidine-2,4(1H,3H)-dione] | –
8 | 1.6 nM | 27% | O=c1[nH]c(-c2ccccc2-c2ccc(Cn3c(=O)n(CCc4ccc(Cl)cc4)c(=O)c4cc(CC(F)(F)F)sc43)cc2)no1 [Ex. 58, 3-[2-(4-chlorophenyl)ethyl]-1-{[2′-(5-oxo-4,5-dihydro-1,2,4-oxadiazol-3-yl)biphenyl-4-yl]methyl}-6-(2,2,2-trifluoroethyl)thieno[2,3-d]pyrimidine-2,4(1H,3H)-dione] | –
9 | 1.6 nM | 56% | COc1cc(F)ccc1C(=O)Cn1c(=O)c2cc(C3CC3)sc2n(Cc2ccc(-c3ccccc3-c3noc(=O)[nH]3)cc2)c1=O [Ex. 130, 6-cyclopropyl-3-[2-(4-fluoro-2-methoxyphenyl)-2-oxoethyl]-1-{[2′-(5-oxo-4,5-dihydro-1,2,4-oxadiazol-3-yl)biphenyl-4-yl]methyl}thieno[2,3-d]pyrimidine-2,4(1H,3H)-dione] | –
10 | 1.6 nM | 50% | CCc1cc2c(=O)n(-c3ccc(OC(C)C)cc3)c(=O)n(Cc3ccc(-c4ccccc4-c4noc(=O)[nH]4)cc3F)c2s1 [Ex. 180, 6-ethyl-1-{[3-fluoro-2′-(5-oxo-4,5-dihydro-1,2,4-oxadiazol-3-yl)biphenyl-4-yl]methyl}-3-(4-isopropoxyphenyl)thieno[2,3-d]pyrimidine-2,4(1H,3H)-dione] | –
11 | 1.4 nM | 66% | CCc1cc2c(=O)n(CC(=O)c3ccccc3)c(=O)n(Cc3ccc(-c4ccccc4-c4noc(=O)[nH]4)cc3)c2s1 [Ex. 209, 6-ethyl-1-{[2′-(5-oxo-4,5-dihydro-1,2,4-oxadiazol-3-yl)biphenyl-4-yl]methyl}-3-(2-oxo-2-phenylethyl)thieno[2,3-d]pyrimidine-2,4(1H,3H)-dione] | –
12 | 1.4 nM | 47% | CCc1cc2c(=O)n(CC(=O)c3cccs3)c(=O)n(Cc3ccc(-c4ccccc4-c4noc(=O)[nH]4)cc3)c2s1 [Ex. 221, 6-ethyl-1-{[2′-(5-oxo-4,5-dihydro-1,2,4-oxadiazol-3-yl)biphenyl-4-yl]methyl}-3-[2-oxo-2-(2-thienyl)ethyl]thieno[2,3-d]pyrimidine-2,4(1H,3H)-dione] | –
13 | 1.3 nM | 27% | CCc1cc2c(=O)n(CC(=NOC)c3ccccc3)c(=O)n(Cc3ccc(-c4ccccc4-c4noc(=O)[nH]4)cc3)c2s1 [Ex. 215, 6-ethyl-3-[2-(methoxyimino)-2-phenylethyl]-1-{[2′-(5-oxo-4,5-dihydro-1,2,4-oxadiazol-3-yl)biphenyl-4-yl]methyl}thieno[2,3-d]pyrimidine-2,4(1H,3H)-dione] | –
14 | 1.1 nM | 31% | O=C(Cn1c(=O)c2cc(C3CC3)sc2n(Cc2ccc(-c3ccccc3-c3noc(=O)[nH]3)cc2)c1=O)c1ccc(F)cc1 [Ex. 63, 6-cyclopropyl-3-[2-(4-fluorophenyl)-2-oxoethyl]-1-{[2′-(5-oxo-4,5-dihydro-1,2,4-oxadiazol-3-yl)biphenyl-4-yl]methyl}thieno[2,3-d]pyrimidine-2,4(1H,3H)-dione] | –
15 | 1 nM | 27% | CCc1cc2c(=O)n(CC(=O)c3ccc(OC)cc3C)c(=O)n(Cc3ccc(-c4ccccc4-c4noc(=O)[nH]4)cc3)c2s1 [Ex. 76, 6-ethyl-3-[2-(4-methoxy-2-methylphenyl)-2-oxoethyl]-1-{[2′-(5-oxo-4,5-dihydro-1,2,4-oxadiazol-3-yl)biphenyl-4-yl]methyl}thieno[2,3-d]pyrimidine-2,4(1H,3H)-dione] | –
16 | 0.77 nM | 37% | CCc1cc2c(=O)n(CC(=O)c3ccc(OC)cc3)c(=O)n(Cc3ccc(-c4ccccc4-c4noc(=O)[nH]4)cc3F)c2s1 [Ex. 83, 6-ethyl-1-{[3-fluoro-2′-(5-oxo-4,5-dihydro-1,2,4-oxadiazol-3-yl)biphenyl-4-yl]methyl}-3-[2-(4-methoxyphenyl)-2-oxoethyl]thieno[2,3-d]pyrimidine-2,4(1H,3H)-dione] | –
